Activity calls are given as the source filed them. The rule behind the calls is not given here. Where a SMILES comes first, the peptide text is derived from it.
Key:
[1] = molecular target: T1, Toll-like receptor 4 (Rattus norvegicus) (UniProt Q9QX05); test: Inhibition of TLR4 in Sprague-Dawley rat cardiomyocytes assessed as reduction in hypoxia-induced LDH release preincubated for 1 hr followed by hypoxia for 3 hrs by NADH detection based colorimetric analysis; format: cell-based
T1 sequence (whole entry): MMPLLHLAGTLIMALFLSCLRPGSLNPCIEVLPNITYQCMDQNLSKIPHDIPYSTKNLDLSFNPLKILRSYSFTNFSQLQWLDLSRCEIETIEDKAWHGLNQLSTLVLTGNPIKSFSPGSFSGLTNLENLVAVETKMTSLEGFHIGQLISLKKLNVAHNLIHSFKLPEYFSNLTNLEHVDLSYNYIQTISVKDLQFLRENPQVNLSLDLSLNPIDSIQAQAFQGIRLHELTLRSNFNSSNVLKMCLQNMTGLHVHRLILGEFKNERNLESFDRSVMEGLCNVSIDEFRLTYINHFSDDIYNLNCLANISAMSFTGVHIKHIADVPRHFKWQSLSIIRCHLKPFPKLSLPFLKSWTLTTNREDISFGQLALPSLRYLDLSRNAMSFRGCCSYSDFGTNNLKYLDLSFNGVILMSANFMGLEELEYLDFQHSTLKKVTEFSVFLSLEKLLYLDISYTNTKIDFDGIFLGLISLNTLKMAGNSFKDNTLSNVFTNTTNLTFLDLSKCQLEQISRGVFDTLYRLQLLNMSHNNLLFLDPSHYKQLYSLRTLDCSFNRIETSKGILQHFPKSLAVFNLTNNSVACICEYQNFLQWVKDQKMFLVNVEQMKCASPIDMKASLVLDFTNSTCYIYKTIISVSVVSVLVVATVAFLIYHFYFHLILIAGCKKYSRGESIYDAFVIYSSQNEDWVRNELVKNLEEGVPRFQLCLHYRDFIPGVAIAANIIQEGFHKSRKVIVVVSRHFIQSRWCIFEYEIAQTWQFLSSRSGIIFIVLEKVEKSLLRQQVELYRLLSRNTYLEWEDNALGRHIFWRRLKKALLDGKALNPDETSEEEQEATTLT

[2] = molecular target: T1, Toll-like receptor 4 (Rattus norvegicus); test: Inhibition of TLR4 in Sprague-Dawley rat cardiomyocytes assessed as reduction in hypoxia-induced creatine kinase levels preincubated for 1 hr followed by hypoxia for 3 hrs by NADP reduction based colorimetric analysis; format: cell-based
[3] = molecular target: T1, Toll-like receptor 4 (Rattus norvegicus); test: Inhibition of TLR4 in Sprague-Dawley rat cardiomyocytes assessed as reduction in hypoxia-induced LDH release at 10 uM preincubated for 1 hr followed by hypoxia for 3 hrs by NADH detection based colorimetric analysis; format: cell-based
[4] = Reduction in hypoxia-induced TLR4 mRNA expression in Sprague-Dawley rat cardiomyocytes at 20 uM preincubated for 1 hr followed by hypoxia for 3 hrs by RT-qPCR analysis relative to untreated control; format: functional, Cardiac muscle cell
[5] = molecular target: T1, Toll-like receptor 4 (Rattus norvegicus); test: Inhibition of TLR4 in Sprague-Dawley rat cardiomyocytes assessed as reduction in hypoxia-induced creatine kinase levels at 10 uM preincubated for 1 hr followed by hypoxia for 3 hrs by NADP reduction based colorimetric analysis; format: cell-based
[6] = molecular target: T1, Toll-like receptor 4 (Rattus norvegicus); test: Inhibition of TLR4 in Sprague-Dawley rat cardiomyocytes assessed as reduction in hypoxia-induced IL-1beta mRNA expression at 20 uM preincubated for 1 hr followed by hypoxia for 3 hrs by RT-qPCR analysis; format: cell-based
[7] = system: Macrophage; test: Antiinflammatory activity in human macrophages assessed reduction in LPS-induced TLR4 expression at 10 uM pretreated for 30 mins followed by LPS stimulation for 4 hrs by FACS analysis; format: functional, cell-based
[8] = molecular target: T1, Toll-like receptor 4 (Rattus norvegicus); test: Inhibition of TLR4 in Sprague-Dawley rat cardiomyocytes assessed as reduction in hypoxia-induced creatine kinase levels at 20 uM preincubated for 1 hr followed by hypoxia for 3 hrs by NADP reduction based colorimetric analysis; format: cell-based
[9] = molecular target: T1, Toll-like receptor 4 (Rattus norvegicus); test: Inhibition of TLR4 in Sprague-Dawley rat cardiomyocytes assessed as reduction in hypoxia-induced LDH release at 20 uM preincubated for 1 hr followed by hypoxia for 3 hrs by NADH detection based colorimetric analysis; format: cell-based
[10] = system: Macrophage; test: Antiinflammatory activity in human macrophages assessed reduction in TLR4 expression at 10 uM after 4 hrs by FACS analysis; format: functional, cell-based
[11] = molecular target: T1, Toll-like receptor 4 (Rattus norvegicus); test: Inhibition of TLR4 in Sprague-Dawley rat cardiomyocytes assessed as reduction in hypoxia-induced creatine kinase levels at 1 uM preincubated for 1 hr followed by hypoxia for 3 hrs by NADP reduction based colorimetric analysis; format: cell-based
[12] = molecular target: T1, Toll-like receptor 4 (Rattus norvegicus); test: Inhibition of TLR4 in Sprague-Dawley rat cardiomyocytes assessed as reduction in hypoxia-induced LDH release at 1 uM preincubated for 1 hr followed by hypoxia for 3 hrs by NADH detection based colorimetric analysis; format: cell-based
[13] = molecular target: T1, Toll-like receptor 4 (Rattus norvegicus); test: Inhibition of TLR4 in Sprague-Dawley rat cardiomyocytes assessed as reduction in LPS-induced creatine kinase levels at 10 to 20 uM preincubated for 1 hr followed by LPS stimulation for 5 hrs by NADH detection based colorimetric analysis; format: cell-based
[14] = molecular target: T1, Toll-like receptor 4 (Rattus norvegicus); test: Inhibition of TLR4 in Sprague Dawley rat cardiomyocytes assessed as reduction in LPS induced LDH levels by measuring NADH levels at 10 to 20 uM preincubated for 1 hr followed by induction of hypoxia measured after 5 hrs by colorimetric analysis; format: cell-based
[15] = molecular target: T1, Toll-like receptor 4 (Rattus norvegicus); test: Inhibition of TLR4 in Sprague-Dawley rat cardiomyocytes assessed as reduction in LPS-induced LDH release at 10 to 20 uM preincubated for 1 hr followed by LPS stimulation for 5 hrs by NADH detection based colorimetric analysis; format: cell-based
[16] = molecular target: T1, Toll-like receptor 4 (Rattus norvegicus); test: Inhibition of TLR4 in Sprague-Dawley rat cardiomyocytes assessed as reduction in hypoxia-induced creatine kinase levels at 10 to 20 uM preincubated for 1 hr followed by hypoxia for 3 hrs by NADP reduction based colorimetric analysis; format: cell-based
[17] = molecular target: T1, Toll-like receptor 4 (Rattus norvegicus); test: Inhibition of TLR4 in Sprague-Dawley rat cardiomyocytes assessed as reduction in hypoxia-induced LDH release at 10 to 20 uM preincubated for 1 hr followed by hypoxia for 3 hrs by NADH detection based colorimetric analysis; format: cell-based

| Molecule | inhibition [1] | inhibition [2] | other results |
| --- | --- | --- | --- |
| CCOc1nc(=O)n(Cc2ccc([N+](=O)[O-])cc2)cc1C | inactive | inactive |  |
| CCCCCCCCNc1nc(=O)n(Cc2ccc([N+](=O)[O-])cc2)cc1C | inactive | inactive |  |
| CC(=O)N[C@@H](Cc1ccccc1)C(=O)N[C@@H](C)C(=O)N[C@@H](CCC(=O)O)C(N)=O (Ac-Phe-Ala-Glu-NH2) | inactive | inactive |  |
| CCOc1nc(=O)n(Cc2ccccc2)cc1C | inactive | inactive |  |
| Cc1cn(Cc2ccccc2)c(=O)nc1NC1CCCC1 | inactive | inactive |  |
| CCC(C)Nc1nc(=O)n(Cc2ccccc2)cc1C (stereo not drawn) | inactive | inactive |  |
| CC(=O)N[C@H](C(=O)N[C@@H](Cc1ccccc1)C(=O)N[C@@H](C)C(N)=O)C(C)C (Ac-Val-Phe-Ala-NH2) | inactive | inactive |  |
| CCCCCCCCCCNc1nc(=O)n(Cc2ccccc2)cc1C | inactive | inactive |  |
| CSCC[C@H](NC(=O)[C@H](CCC(=O)O)NC(=O)[C@H](C)NC(C)=O)C(=O)N1CCC[C@H]1C(N)=O (Ac-AEMP-NH2) | Dose-dependent effect | Dose-dependent effect |  |
| Cc1cn(Cc2ccccc2)c(=O)nc1NCCC(C)C |  |  | inhibition [3]: Active; fold change (FC) [4]: 1.5; inhibition [5]: Active; fold change (FC) [6]: 1.4 |
| Cc1cn(Cc2ccccc2)c(=O)nc1NCc1ccccc1 | inactive | inactive |  |
| CCOc1nc(=O)n(Cc2ccc3ccccc3c2)cc1C | inactive | inactive |  |
| H-IVFAEMPCG-OH |  |  | inhibition [3]: inactive; Activity [7]: Active; fold change (FC) [8]: 5.5; inhibition [5]: inactive; fold change (FC) [9]: 1.8; Activity [10]: Active |
| Cc1cn(Cc2ccccc2)c(=O)nc1NCCCN(C)C | inactive | inactive |  |
| CC[C@H](C)[C@H](NC(C)=O)C(=O)N[C@H](C(=O)N[C@@H](Cc1ccccc1)C(=O)N[C@@H](C)C(N)=O)C(C)C (Ac-IVFA-NH2) | Dose-dependent effect | Dose-dependent effect | inhibition [11]: 77%; inhibition [12]: 70%; Activity [7]: Active; inhibition [13]: Active; inhibition [14]: Active; inhibition [15]: Active; Activity [10]: Active |
| CCOc1ncc(C)c(OCC)n1 | inactive | inactive |  |
| CSCC[C@H](NC(=O)[C@H](CCC(=O)O)NC(C)=O)C(=O)N1CCC[C@H]1C(=O)NC(CS)C(N)=O (single isomer, unassigned) | inactive | inactive |  |
| CCCCCCCCNc1nc(=O)n(Cc2ccc(C(F)(F)F)cc2)cc1C | inactive | inactive |  |
| CSCC[C@H](NC(=O)[C@H](CCC(=O)O)NC(=O)[C@H](C)NC(=O)[C@H](Cc1ccccc1)NC(C)=O)C(N)=O (Ac-FAEM-NH2) | Dose-dependent effect | Dose-dependent effect | inhibition [16]: Active; inhibition [17]: Active |
| CC[C@H](C)[C@H](NC(C)=O)C(=O)N[C@@H](Cc1ccccc1)C(=O)N[C@@H](C)C(N)=O (Ac-Ile-Phe-Ala-NH2) | inactive | inactive |  |
| CSCC[C@H](NC(C)=O)C(=O)N1CCC[C@H]1C(=O)NC(CS)C(=O)NCC(N)=O (single isomer, unassigned) | inactive | inactive |  |
| CC(=O)N[C@H](C(=O)N[C@@H](Cc1ccccc1)C(=O)N[C@@H](C)C(=O)N[C@@H](CCC(=O)O)C(N)=O)C(C)C (Ac-VFAE-NH2) | Dose-dependent effect | Dose-dependent effect | Activity [7]: Active; inhibition [16]: Active; inhibition [13]: Active; inhibition [14]: Active; inhibition [17]: Active; inhibition [15]: Active; Activity [10]: Active |
| CCOc1nc(=O)n(Cc2ccc(C(F)(F)F)cc2)cc1C | inactive | inactive |  |

Reference: ChEMBL document CHEMBL4382262, “Structurally Simple, Readily Available Peptidomimetic 1-Benzyl-5-methyl-4-( n-octylamino)pyrimidin-2(1 H)-one Exhibited Efficient Cardioprotection in a Myocardial Ischemia (MI) Mouse Model” (J Med Chem, 2018)
